The text below walks through data of patent US20180071307A1, “MEDICINAL COMPOSITION FOR ALLEVIATING ENDOMETRIOSIS AND COMPLICATIONS THEREOF AND USE OF THE SAME” (NATIONAL SUN YAT-SEN UNIVERSITY, priority 2016, published 2018).

The test system of assay [1] is effectors of ribosome biogenesis (selected snoRNAs and RPs). The assay can be described thus: qPCR of effectors of ribosome biogenesis in ovarian clear cell carcinoma cells. In kind it is cell-based, human. To be noted: ES-2 and TOV-21G, following 24 h of treatment. The source says: (§1) For anti-ribosome biogenesis assays, including cell growth, cell migration and cell cycle analysis, ovarian clear cells were maintained for five days in culture medium with or without RNA polymerase I inhibitor, CX-5461 (Selleckchem, Houston, Tex.) or GSK2126458 (GlaxoSmithKline, Middlesex, United Kingdom).
(§2) Please refer to FIGS. 4A to 4E, which illustrate that mTOR/c-Myc inhibition suppresses cell growth and mobility of ovarian clear cells according to an embodiment of the present invention. FIG. 4A is depicted to ovarian cancer cell lines, ES-2 and TOV-2IG, treated with the mTOR/c-Myc inhibitor, GSK2126458, at a final concentration of 50 nM. GSK2126458 effects on effectors of ribosome biogenesis were measured by qPCR at the indicated time points. […] FIG. 4B is depicted to GSK2126458 effects on cell growth were assessed via MTT assay. FIG. 4C is depicted to cell mobility measured using wound-healing migration assays. Cells migrating into the detection zone were counted and averaged from eight replicates. […] FIG. 4E is depicted to cell cycle inhibited by GSK2126458 after 48 hours of treatment and analyzed by flow cytometry using propidium iodide DNA staining. […]
(§3) Please refer to FIGS. 5A to 5D, which illustrate that RNA polymerase 1 inhibition suppresses cell growth and mobility of ovarian clear cells. […] FIG. 5B is depicted to CX-5461 effects on cell growth were assessed via MTT assay. […]
In general terms: Real-time PCR tracks product formation cycle by cycle.

Assay [2] relates to ovarian clear cell carcinoma cell lines ES-2 and TOV-21G. Description: cell growth via MTT assay. In kind it is cell-based, human. To be noted: after 48 h of treatment.
Excerpt: as §1, §2, §3
(Formazan colour is commonly taken as a measure of viable cells.)

For assay [3] the test system is unchanged. The assay can be described thus: wound-healing migration assay (cell mobility). It is filed as cell-based, human. To be noted: after 48 h of treatment.
Excerpt: as §1, §2, §3

For assay [4] the test system is unchanged. The assay can be described thus: DNA synthesis (BrdU incorporation). In kind it is cell-based, human. As to conditions: after 48 h of treatment.
Excerpt: as §1
(§4) Please refer to FIGS. 4A to 4E, which illustrate that mTOR/c-Myc inhibition suppresses cell growth and mobility of ovarian clear cells according to an embodiment of the present invention. FIG. 4A is depicted to ovarian cancer cell lines, ES-2 and TOV-2IG, treated with the mTOR/c-Myc inhibitor, GSK2126458, at a final concentration of 50 nM. GSK2126458 effects on effectors of ribosome biogenesis were measured by qPCR at the indicated time points. Data were represented as means of triplicates with standard variations. FIG. 4B is depicted to GSK2126458 effects on cell growth were assessed via MTT assay. FIG. 4C is depicted to cell mobility measured using wound-healing migration assays. Cells migrating into the detection zone were counted and averaged from eight replicates. FIG. 4D is depicted to DNA synthesis (BrdU incorporation) of cells influenced by GSK2126458. FIG. 4E is depicted to cell cycle inhibited by GSK2126458 after 48 hours of treatment and analyzed by flow cytometry using propidium iodide DNA staining. The cell cycle of many cells was inhibited and arrested at G1 phase.
For orientation: Uptake of a labelled nucleoside into DNA is a usual measure of proliferation.

Assay [5] relates to ES-2 cells. The assay can be described thus: cell cycle analysis by flow cytometry using propidium iodide DNA staining, ES-2. In kind it is cell-based, human. To be noted: after 96 h of treatment.
Excerpt: as §1
(§5) Please refer to FIGS. 5A to 5D, which illustrate that RNA polymerase 1 inhibition suppresses cell growth and mobility of ovarian clear cells. FIG. 5A is depicted to cells treated with the RNA polymerase 1 inhibitor, CX-5461, at a final concentration of 25 nM. CX-5461 effects on downstream effectors of ribosome biogenesis were measured by qPCR at the indicated time points. Data were represented as means of triplicates with standard variations. FIG. 5B is depicted to CX-5461 effects on cell growth were assessed via MTT assay. FIG. 5C is depicted to cell mobility measured using wound-healing migration assays. Cells migrating into the detection zone were counted and averaged from eight replicates. FIG. 5D is depicted to treated cells that were analyzed at the indicated time points by flow cytometry using propidium iodide DNA staining.

For assay [6], the system named is TOV-21G cells. Description: cell cycle analysis by flow cytometry using propidium iodide DNA staining, TOV-21G. It is filed as cell-based, human. To be noted: after 96 h of treatment.
Excerpt: as §1, §5

Assay [7] deals with endometriosis lesions. Description: mouse model of endometriosis: lesion numbers. It is filed as in vivo, C57BL/6 mice. To be noted: compared to respective vehicle; CX-5461 1.25 mg/100 μL thrice per week, GSK2126458 0.075 mg/100 μL five times per week, three weeks. On the procedure: (§6) Mature (approximately 8-week-old) female C57BL/6 mice were purchased from Harlan Laboratories (Derby, UK) and were allowed to acclimate for 1 week before surgery. Mice were maintained on standard chow and water available ad libitum and were housed in environmentally controlled facilities illuminated between 7:00 AM and 7:00 PM. All the animal procedures were performed in accordance with legal requirements.
Typically, menstruation was induced in adult donor mice (approximately 8 weeks of age) using a protocol developed as aforemented. In brief, long-term ovariectomized (OVE) mice (day 1) were primed with s.c. injections of 100 ng of estradiol-17β (days 7 to 9), treated with progesterone (P4; Sigma-Aldrich, Dorset, UK) delivered via a SILASTIC implant (Dow Corning Corp, Midland, Mich.) from days 13 to 19, and injected with 5 ng of estradiol-17β in sesame oil on days 13, 14, and 15. Decidualization was induced in one uterine horn using […] of oil (day 15), and endometrial tissue in the process of being shed from the decidualized horn was recovered from mice culled on day 19, 4 hours after P4 withdrawal (removal of pellet) by opening the horn longitudinally in a petri dish and scraping the tissue away from the myometrial layer using a scalpel. […]

Assay [8] has as its system inflammatory cells (small peritoneal macrophages, neutrophils) in abdominal cavity. The assay can be described thus: mouse model of endometriosis: inflammatory cells in abdominal cavity. In kind it is in vivo, C57BL/6 mice. As to conditions: comparing with naive, sham and vehicles; for small peritoneal macrophages in abdominal cavity: three weeks of treatment (FIG. 8A); for neutrophils in abdominal cavity: three weeks of treatment (FIG. 8B). On the procedure: as §6
(§7) Typically, menstruation was induced in adult donor mice (approximately 8 weeks of age) using a protocol developed as aforemented. In brief, long-term ovariectomized (OVE) mice (day 1) were primed with s.c. injections of 100 ng of estradiol-17β (days 7 to 9), treated with progesterone (P4; Sigma-Aldrich, Dorset, UK) delivered via a SILASTIC implant (Dow Corning Corp, Midland, Mich.) from days 13 to 19, and injected with 5 ng of estradiol-17β in sesame oil on days 13, 14, and 15. Decidualization was induced in one uterine horn using […] of oil (day 15), and endometrial tissue in the process of being shed from the decidualized horn was recovered from mice culled on day 19, 4 hours after P4 withdrawal (removal of pellet) by opening the horn longitudinally in a petri dish and scraping the tissue away from the myometrial layer using a scalpel. The tissue mass was suspended in 0.2 mL of PBS and passed through a 19-gauge needle before being injected i.p. into anesthetized recipient mice (approximately 8 weeks of age) that had been previously ovariectomized and implanted with an estradiol-17β (Sigma-Aldrich) SILASTIC implant (FIG. 6). Tissue from one decidualized donor horn was used to inoculate each recipient mouse (approximately 40 mg tissue/0.2 mL PBS per mouse) on day 19. In FIG. 6, there are four groups: B, injecting recipient mice with EV once and vehicle of CX-5461 every Monday, Wednesday and Friday for three weeks; GSK, injecting recipient mice with EV once and GSK2126458 on Monday to Friday for three weeks; A, injecting recipient mice with EV once and vehicle of GSK2126458 on Monday to Friday for three weeks; Sham, injecting recipient mice with EV once (no endometriosis, hormone treatment); Naive, mice without endometriosis or treated with any hormone or drug.
[…] E2 (E2, 100 ng/100 μL or 5 ng/100 μL) was diluted in sesame oil. Estradiol valerate (EV, 500 ng/100 μL) was diluted in sesame oil. P4 pellet was fused with progesterone (P4; Sigma-Aldrich, Dorset, UK) delivered via a SILASTIC implant (Dow Corning Corp, Midland, Mich.). […]

Assay [9] deals with endometriosis-related pain. Description: mouse model of endometriosis: tunnel entries (overall activity). It is filed as in vivo, C57BL/6 mice. To be noted: versus vehicles; day 33 to day 40 (FIG. 9A). On the procedure: as §6
Typically, menstruation was induced in adult donor mice (approximately 8 weeks of age) using a protocol developed as aforemented. In brief, long-term ovariectomized (OVE) mice (day 1) were primed with s.c. injections of 100 ng of estradiol-17β (days 7 to 9), treated with progesterone (P4; Sigma-Aldrich, Dorset, UK) delivered via a SILASTIC implant (Dow Corning Corp, Midland, Mich.) from days 13 to 19, and injected with 5 ng of estradiol-17β in sesame oil on days 13, 14, and 15. […]
On day 33 to day 40, some behavior tests were scored from tunnel entries and pressure pain thresholds. Mice freely moved in three cages connected by tunnels, and numbers of tunnel entered by each mouse were measured in five minutes, and the average of three measures were calculated, for evaluating overall activity of each mouse. […]

The test system of assay [10] is endometriosis-related pain. Description: mouse model of endometriosis: pressure pain thresholds (mechanical hyperalgesia). As to conditions: versus vehicles; for abdominal retraction threshold: day 33 to day 40 (FIG. 9B); for paw withdrawal threshold: hind paw, day 33 to day 40 (FIG. 9C). In kind it is in vivo, C57BL/6 mice. On the procedure:
as §6
as §7, with “In FIG. 6, there are four groups: B, injecting recipient mice with EV once and vehicle of CX-5461 every Monday, Wednesday and Friday for three weeks; GSK, injecting recipient mice with EV once and GSK2126458 on Monday to Friday for three weeks; A, injecting recipient mice with EV once and vehicle of GSK2126458 on Monday to Friday for three weeks; Sham, injecting recipient mice with EV once (no endometriosis, hormone treatment); Naive, mice without endometriosis or treated with any hormone or drug.” left out
Pressure pain thresholds were assessed by a commercially available pain evaluation kit (Touch Test® Sensory Evaluators (North Coast Medical Inc., CA, U.S.A.). This pain evaluation kit has different probes (or needles) of different diameters, which were respectively stab the abdomen or the palmar side of the hind paw of mice. Mice were instructed to signal when the stimulus became painful, and observed which size cause painful. Threshold levels (gravity, g) were assessed before and after the test, and the average of three measures were calculated, for evaluating abdominal retraction threshold (g) or paw withdrawal threshold (g) of each mouse. […]

For assay [11], the system named is ovarian clear cell carcinoma cell lines ES-2 and TOV-21G. Description: cell cycle analysis by flow cytometry using propidium iodide DNA staining (both cell lines, result in words). In kind it is cell-based, human. To be noted: after 48 hours of treatment (FIG. 4E).
Excerpt: as §1, §4

Consider `Cc1cnc(CNC(=O)c2c(=O)c3ccc(N4CCCN(C)CC4)nc3n3c2sc2ccccc23)cn1` [CX-5461], for which, in assay [1] (CX-5461 at 25 nM), the “expression of the selected snoRNAs and RPs (qPCR, FIG. 5A)” value was “reduced”. In assay [1] (FIG. 4A legend: GSK2126458 at 50 nM), the “expression of the selected snoRNAs and RPs (qPCR, FIG. 4A)” value was “reduced”. For the same molecule, in [2], the cell proliferation rate entry is reported as “decreased”. In assay [3], the cell mobility rate result is reported as “decreased”. The DNA synthesis result in assay [4] is listed as “inhibition”. In addition, in [5], the “cell arrest at G2/M-phase” value worked out at 48.1% and the cell death was found to be 12.3%. In assay [6], the “cell arrest at G2/M-phase” value came to 52.3% and the cell death came to 23.4%. For the same molecule, the lesion numbers entry in [7] is listed as “significantly reduced”. Also, in [8], the “small peritoneal macrophages in abdominal cavity” value is on record as “significantly reduced” and the “neutrophils in abdominal cavity” value was “significantly reduced”. Moreover, the “overall activity (tunnel entries in five minutes)” value in assay [9] was “more active”. In assay [10], the abdominal retraction threshold result was “higher” and the paw withdrawal threshold result is listed as “higher”.

Regarding `COc1ncc(-c2ccc3nccc(-c4ccnnc4)c3c2)cc1NS(=O)(=O)c1ccc(F)cc1F` [GSK2126458, 2,4-difluoro-N-[2-methoxy-5-[4-(4-pyridazinyl)-6-quinolinyl]-3-pyridinyl]benzenesulfonamide], in assay [2], the cell proliferation rate entry was “decreased”. The cell mobility rate entry in assay [3] is “decreased”. Also, the DNA synthesis result in assay [4] is “inhibition”. Moreover, in assay [11], the cell cycle arrest result is listed as “cell arrest at G1-phase” and the “cells of sub-G1 phase (implying cell death)” value is reported as “increased”. Further, the lesion numbers result in [7] is “significantly reduced”. For the same molecule, in assay [8], the “small peritoneal macrophages in abdominal cavity” value is “significantly reduced” and the “neutrophils in abdominal cavity” value is recorded as “significantly reduced”. Moreover, the “overall activity (tunnel entries in five minutes)” value in [9] is reported as “more active”. For the same molecule, in assay [10], the abdominal retraction threshold result is recorded as “higher” and the paw withdrawal threshold result is “higher”.
